From ChEMBL document CHEMBL5226374, “Peniandranoids A-E: Meroterpenoids with Antiviral and Immunosuppressive Activity from a Penicillium sp” (J Nat Prod, 2023)
Active and inactive are the calls of the source. The rule behind the calls is not given here.

Columns and labels:
[1] = Cytotoxicity against BALB/c mouse Splenocyte assessed as reduction in cell viability incubated for 48 hrs by MTT assay; type: toxicity, cell-based; settings: splenocytes
[2] = tested on: HT-29; assay: Cytotoxicity against human HT-29 cells assessed as inhibition of cell growth by MTT assay; type: functional, cell-based
[3] = tested on: Splenocyte; assay: Immunosuppressive activity in BALB/c mouse splenocytes assessed as reduction in LPS-induced mouse B-lymphocytes proliferation incubated for 48 hrs by MTT assay; type: functional, cell-based
[4] = tested on: Splenocyte; assay: Immunosuppressive activity in BALB/c mouse splenocyte assessed as reduction in ConA-induced mouse T-lymphocytes proliferation incubated for 48 hrs by MTT assay; type: functional, cell-based
[5] = tested on: HeLa; assay: Cytotoxicity against human HeLa cells assessed as inhibition of cell growth by MTT assay; type: functional, cell-based
[6] = tested on: MCF7; assay: Cytotoxicity against human MCF7 cells assessed as inhibition of cell growth by MTT assay; type: functional, cell-based
[7] = tested on: A549; assay: Cytotoxicity against human A549 cells assessed as inhibition of cell growth by MTT assay; type: functional, cell-based
[8] = Selectivity index, ratio of CC50 for cytotoxicity in BALB/c mouse splenocytes to EC50 for immunosuppressive activity in BALB/c mouse splenocytes assessed as reduction in LPS-induced mouse B-lymphocytes proliferation; type: toxicity, cell-based; settings: read-out: Ratio CC50/EC50
[9] = tested on: L02; assay: Cytotoxicity against human L02 cells assessed as inhibition of cell growth by MTT assay; type: toxicity, cell-based
[10] = tested on: HCT-116; assay: Cytotoxicity against human HCT-116 cells assessed as inhibition of cell growth by MTT assay; type: functional, cell-based
[11] = Selectivity index, ratio of CC50 for cytotoxicity in BALB/c mouse splenocytes to EC50 for immunosuppressive activity in BALB/c mouse splenocytes assessed as reduction in ConA-induced mouse T-lymphocytes proliferation; type: toxicity, cell-based; settings: read-out: Ratio CC50/EC50
[12] = Cytotoxicity against African green monkey Vero cells incubated for 48 hrs by DAPI staining based assay; type: toxicity, cell-based; settings: chlorocebus sabaeus
[13] = Cytotoxicity against MDCK cells assessed as reduction in cell viability incubated for 48 hrs by CellTiter-Glo assay; type: toxicity, cell-based, Canis lupus familiaris; settings: dog
[14] = Cytotoxicity against human HEp-2 cells assessed as reduction in cell viability incubated for 6 days by CellTiter-Glo assay; type: toxicity, cell-based; settings: time 6 day
[15] = Selectivity index, ratio of CC50 for cytotoxicity against MDCK cells to EC50 for antiviral activity against Influenza A virus A/PR/8 (H1N1) infected in MDCK cells; type: toxicity, cell-based; settings: dog, read-out: Ratio CC50/EC50
[16] = tested on: dengue virus type 3; assay: Antiviral activity against Dengue virus 3 infected in african green monkey Vero cells assessed as reduction in viral protein expression incubated for 48 hrs by indirect immunofluorescence assay; type: functional, organism-based
[17] = Selectivity index, ratio of CC50 for cytotoxicity against African green monkey Vero cells to EC50 for antiviral activity against Dengue virus 3 infected in african green monkey Vero cells; type: toxicity, cell-based; settings: read-out: Ratio CC50/EC50
[18] = tested on: Influenza A virus; assay: Antiviral activity against Influenza A virus A/PR/8 (H1N1) infected in MDCK cells assessed as inhibition of viral growth incubated for 48 hrs by indirect immunofluorescence assay; type: functional, organism-based
[19] = Selectivity index, ratio of CC50 for cytotoxicity against human HEp-2 cells to EC50 for antiviral activity against Respiratory syncytial virus infected in human HEp-2 cells; type: toxicity, cell-based; settings: read-out: Ratio CC50/EC50
[20] = tested on: Respiratory syncytial virus; assay: Antiviral activity against Respiratory syncytial virus infected in human HEp-2 cells assessed as inhibition of virus-induced cytopathic effect measured after 6 days by CellTiter-Glo assay; type: functional, organism-based; settings: HEp-2, 144 h

Compound: COC(=O)[C@@]12C(=O)[C@](C)(Cc3c(O)c(C)cc(C(C)=O)c3O)C(=O)[C@]1(C)C(C)=C[C@H]1[C@]3(CO)CC[C@H](OC(C)=O)C(C)(C)[C@H]3CC[C@@]12C
- CC50 at 48 h [1]: > 50 µM
- Activity [2]: inactive
- EC50 [3]: 50 µM
- EC50 [4]: > 50 µM
- Activity [5]: inactive
- Activity [6]: inactive
- Activity [7]: inactive
- selectivity ratio [8]: > 1
- Activity [9]: Non-Toxic
- Activity [10]: inactive

Compound: CC/C=C/C=C/[C@@]1(C)OC(C[C@H](C)[C@]2(C)C(=O)[C@]3(C)C(C)=C[C@H]4[C@]5(C=O)CC[C@H](OC(C)=O)C(C)(C)[C@H]5CC[C@]4(C)[C@]3(C(=O)OC)C2=O)=C(C(=O)OC)C1=O
- CC50 at 48 h [1]: 19 µM
- EC50 [3]: 8.5 µM
- EC50 [4]: 8.5 µM
- selectivity ratio [8]: 2.2
- selectivity ratio [11]: 2.2

Compound: COC(=O)[C@@]12C(=O)[C@](C)(Cc3c(O)c(C)cc(C(C)=O)c3O)C(=O)[C@]1(C)C(C)=C[C@H]1[C@]3(C=O)CC[C@H](OC(C)=O)C(C)(C)[C@H]3CC[C@@]12C
- CC50 at 48 h [1]: > 50 µM
- CC50 at 48 h [12]: 73 µg/mL
- Activity [2]: inactive
- CC50 at 48 h [13]: > 500 µg/mL
- EC50 [3]: > 50 µM
- EC50 [4]: 19 µM
- Activity [5]: inactive
- CC50 at 144 h [14]: 43 µg/mL
- Activity [6]: inactive
- Activity [7]: inactive
- selectivity ratio [15]: > 26
- selectivity ratio [11]: > 2.6
- EC50 [16]: > 100 µg/mL
- selectivity ratio [17]: < 1
- Activity [9]: Non-Toxic
- Activity [10]: inactive
- EC50 [18]: 19 µg/mL

Compound: C#C[C@@]1(O)[C@H](O)[C@@H](CO)O[C@H]1n1ccc2c(N)ncnc21
- CC50 at 48 h [12]: 74 µM
- EC50 [16]: 1.1 µM
- selectivity ratio [17]: 67

Compound: COC(=O)C1=C(C[C@@H](C)[C@]2(C)C(=O)[C@]3(C)C(C)=C[C@H]4[C@]5(C=O)CC[C@H](OC(C)=O)C(C)(C)[C@H]5CC[C@]4(C)[C@]3(C(=O)OC)C2=O)O[C@](C)(/C=C/C=C/[C@H](C)O)C1=O
- CC50 at 48 h [1]: > 50 µM
- Activity [2]: inactive
- EC50 [3]: 12 µM
- EC50 [4]: 27 µM
- Activity [5]: inactive
- Activity [6]: inactive
- Activity [7]: inactive
- selectivity ratio [8]: > 4.2
- selectivity ratio [11]: > 1.9
- Activity [9]: Non-Toxic
- Activity [10]: inactive

Compound: COC(=O)[C@@]12C(=O)[C@](C)(C(=O)c3cc(OC)c(O)c(O)c3C(C)=O)C(=O)[C@]1(C)C(C)=C[C@H]1[C@]3(C)CC[C@H](OC(C)=O)C(C)(C)[C@H]3CC[C@@]12C
- CC50 at 48 h [1]: 21 µM
- Activity [2]: inactive
- EC50 [3]: 8.8 µM
- EC50 [4]: 11 µM
- Activity [5]: inactive
- Activity [6]: inactive
- Activity [7]: inactive
- selectivity ratio [8]: 2.4
- selectivity ratio [11]: 1.9
- Activity [9]: Non-Toxic
- Activity [10]: inactive

Compound: CC/C=C/C=C/[C@@]1(C)OC(C[C@@H](C)[C@]2(C)C(=O)[C@]3(C)C(C)=C[C@H]4[C@]5(C=O)CC[C@H](OC(C)=O)C(C)(C)[C@H]5CC[C@]4(C)[C@]3(C(=O)OC)C2=O)=C(C(=O)OC)C1=O
- CC50 at 48 h [1]: 26 µM
- EC50 [3]: 7.5 µM
- EC50 [4]: 23 µM
- selectivity ratio [8]: 3.5
- selectivity ratio [11]: 1.1

Compound: NC(=O)c1ncn([C@@H]2O[C@H](CO)[C@@H](O)[C@H]2O)n1 [RIBAVIRIN]
- CC50 at 48 h [13]: > 300 µM
- selectivity ratio [19]: 18
- CC50 at 144 h [14]: 95 µM
- EC50 [20]: 5.4 µM
- selectivity ratio [15]: > 71
- EC50 [18]: 4.2 µM

Compound: COC(=O)[C@@]12C(=O)[C@](C)(C(=O)c3cc(OC)c(O)c(O)c3C(C)=O)C(=O)[C@]1(C)C(C)=C[C@H]1[C@]3(C=O)CC[C@H](OC(C)=O)C(C)(C)[C@H]3CC[C@@]12C
- CC50 at 48 h [1]: 44 µM
- Activity [2]: inactive
- CC50 at 48 h [13]: 114 µg/mL
- EC50 [3]: 23 µM
- EC50 [4]: 23 µM
- Activity [5]: inactive
- Activity [6]: inactive
- Activity [7]: inactive
- selectivity ratio [15]: 8.1
- selectivity ratio [8]: 1.9
- selectivity ratio [11]: 1.9
- Activity [9]: Non-Toxic
- Activity [10]: inactive
- EC50 [18]: 14 µg/mL

Compound: COc1c(C)c2c(c(O)c1C/C=C(\C)CCC(=O)OCCN1CCOCC1)C(=O)OC2 [MYCOPHENOLATE MOFETIL]
- EC50 [3]: 0.48 µM
